According to PubChem BioAssay AID1963439 (Molecular Pharmacology Branch, DTP, NCI, 2024):

Tested on: NCI-H196 complex spheroids with HUVEC/MSC, growth % T/C
Test: Anticancer human tumor NCI-H196 cell line growth inhibition [Asc];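 further: spheroids exposed to compound for 7 days before measurement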;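 on viability, T/C: 100% = DMSO vehicle control wells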
Details: for IC50: curve of first compound; for viability, T/C: stronger effect = lower value
Method in brief: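 Spheroid model: tumor line + HUVEC + hMSC. Single agents and combinations; top conc. at/near clinical Cmax (10 microM if undetermined), half-log dilutions. DMSO stocks at 800-fold test concentration.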

Q: Which results are given for CCN1C(C(=O)NC23CCC(C(=O)O)(CC2)CC3)C(c2cccc(Cl)c2F)C2(C(=O)Nc3cc(Cl)ccc32)C12CCCCC2 (stereo not given) + Cc1c(S(C)(=O)=O)c(-c2cc(F)cc(N3CCN(c4ccc(NS(=O)(=O)c5ccc(NC(CCN6CCC(C(=O)OCCCP(=O)(O)O)CC6)CSc6ccccc6)c(S(=O)(=O)C(F)(F)F)c5)cc4)CC3)c2)c(-c2ccc(Cl)cc2)n1C(C)C?
A: IC50 (second compound 0.1 µM): > 3 µM; IC50 (second compound 0.316 µM): > 3 µM; IC50 (second compound 1 µM): > 3 µM; IC50 (second compound 3.16 µM): 2.85 µM; IC50 (second compound 10 µM): 1.66 µM; viability, T/C (second compound 0.1 µM, first compound 0.00949 µM): 89.3%; viability, T/C (second compound 0.1 µM, first compound 0.03 µM): 104%; viability, T/C (second compound 0.1 µM, first compound 0.0949 µM): 91.2%; viability, T/C (second compound 0.1 µM, first compound 0.3 µM): 91.5%; viability, T/C (second compound 0.1 µM, first compound 0.949 µM): 92.2%; viability, T/C (second compound 0.1 µM, first compound 3 µM): 86.4%; viability, T/C (second compound 0.316 µM, first compound 0.00949 µM): 89.6%; viability, T/C (second compound 0.316 µM, first compound 0.03 µM): 89.7%; viability, T/C (second compound 0.316 µM, first compound 0.0949 µM): 95.5%; viability, T/C (second compound 0.316 µM, first compound 0.3 µM): 85.3%; viability, T/C (second compound 0.316 µM, first compound 0.949 µM): 88.3%; viability, T/C (second compound 0.316 µM, first compound 3 µM): 69.4%; viability, T/C (second compound 1 µM, first compound 0.00949 µM): 84.3%; viability, T/C (second compound 1 µM, first compound 0.03 µM): 83%; viability, T/C (second compound 1 µM, first compound 0.0949 µM): 87.5%; viability, T/C (second compound 1 µM, first compound 0.3 µM): 80.8%; viability, T/C (second compound 1 µM, first compound 0.949 µM): 78.9%; viability, T/C (second compound 1 µM, first compound 3 µM): 62.6%; viability, T/C (second compound 3.16 µM, first compound 0.00949 µM): 77.9%; viability, T/C (second compound 3.16 µM, first compound 0.03 µM): 82.5%; viability, T/C (second compound 3.16 µM, first compound 0.0949 µM): 72.5%; viability, T/C (second compound 3.16 µM, first compound 0.3 µM): 72.3%; viability, T/C (second compound 3.16 µM, first compound 0.949 µM): 66.2%; viability, T/C (second compound 3.16 µM, first compound 3 µM): 48.7%; viability, T/C (second compound 10 µM, first compound 0.00949 µM): 70.2%; viability, T/C (second compound 10 µM, first compound 0.03 µM): 79.1%; viability, T/C (second compound 10 µM, first compound 0.0949 µM): 70.1%; viability, T/C (second compound 10 µM, first compound 0.3 µM): 73.2%; viability, T/C (second compound 10 µM, first compound 0.949 µM): 59%; viability, T/C (second compound 10 µM, first compound 3 µM): 38.6%

Q: Which IC50 (second compound 0.1 µM) does the source give for C=CC(=O)N1CCN(c2nc(=O)n(-c3c(C)ccnc3C(C)C)c3nc(-c4c(O)cccc4F)c(F)cc23)C(C)C1 (stereo not given) + Cc1c(S(C)(=O)=O)c(-c2cc(F)cc(N3CCN(c4ccc(NS(=O)(=O)c5ccc(NC(CCN6CCC(C(=O)OCCCP(=O)(O)O)CC6)CSc6ccccc6)c(S(=O)(=O)C(F)(F)F)c5)cc4)CC3)c2)c(-c2ccc(Cl)cc2)n1C(C)C here?
A: > 10 µM

Q: And the IC50 (second compound 0.316 µM)?
A: > 10 µM

Q: What about the IC50 (second compound 1 µM) of the same molecule?
A: > 10 µM

Q: What about the IC50 (second compound 3.16 µM) of the same molecule?
A: > 10 µM

Q: And the IC50 (second compound 10 µM)?
A: > 10 µM

Q: And the viability, T/C (second compound 0.1 µM, first compound 0.0316 µM)?
A: 103%

Q: What about the viability, T/C (second compound 0.1 µM, first compound 0.1 µM) of the same molecule?
A: 93.2%

Q: What about the viability, T/C (second compound 0.1 µM, first compound 0.316 µM) of the same molecule?
A: 96.1%

Q: And the viability, T/C (second compound 0.1 µM, first compound 1 µM)?
A: 102%

Q: And the viability, T/C (second compound 0.1 µM, first compound 3.16 µM)?
A: 96%

Q: And the viability, T/C (second compound 0.1 µM, first compound 10 µM)?
A: 97.9%

Q: What about the viability, T/C (second compound 0.316 µM, first compound 0.0316 µM) of the same molecule?
A: 92.1%

Q: And the viability, T/C (second compound 0.316 µM, first compound 0.1 µM)?
A: 97.4%

Q: What about the viability, T/C (second compound 0.316 µM, first compound 0.316 µM) of the same molecule?
A: 96%

Q: What about the viability, T/C (second compound 0.316 µM, first compound 1 µM) of the same molecule?
A: 109%

Q: And the viability, T/C (second compound 0.316 µM, first compound 3.16 µM)?
A: 104%

Q: What about the viability, T/C (second compound 0.316 µM, first compound 10 µM) of the same molecule?
A: 96.5%

Q: And the viability, T/C (second compound 1 µM, first compound 0.0316 µM)?
A: 95.5%

Q: What about the viability, T/C (second compound 1 µM, first compound 0.1 µM) of the same molecule?
A: 92.4%

Q: And the viability, T/C (second compound 1 µM, first compound 0.316 µM)?
A: 93.9%

Q: What about the viability, T/C (second compound 1 µM, first compound 1 µM) of the same molecule?
A: 88%

Q: What about the viability, T/C (second compound 1 µM, first compound 3.16 µM) of the same molecule?
A: 110%

Q: And the viability, T/C (second compound 1 µM, first compound 10 µM)?
A: 85.7%

Q: What about the viability, T/C (second compound 3.16 µM, first compound 0.0316 µM) of the same molecule?
A: 87.9%

Q: And the viability, T/C (second compound 3.16 µM, first compound 0.1 µM)?
A: 87.1%

Q: And the viability, T/C (second compound 3.16 µM, first compound 0.316 µM)?
A: 83.8%

Q: What about the viability, T/C (second compound 3.16 µM, first compound 1 µM) of the same molecule?
A: 87.8%

Q: And the viability, T/C (second compound 3.16 µM, first compound 3.16 µM)?
A: 84.9%

Q: What about the viability, T/C (second compound 3.16 µM, first compound 10 µM) of the same molecule?
A: 80%

Q: What about the viability, T/C (second compound 10 µM, first compound 0.0316 µM) of the same molecule?
A: 73.9%

Q: And the viability, T/C (second compound 10 µM, first compound 0.1 µM)?
A: 79.6%

Q: What about the viability, T/C (second compound 10 µM, first compound 0.316 µM) of the same molecule?
A: 79.8%

Q: And the viability, T/C (second compound 10 µM, first compound 1 µM)?
A: 75.3%

Q: What about the viability, T/C (second compound 10 µM, first compound 3.16 µM) of the same molecule?
A: 78.1%

Q: What about the viability, T/C (second compound 10 µM, first compound 10 µM) of the same molecule?
A: 66.8%
